These molecules were tested on HCT116 MTAP-deleted cell lines (assay: Cell viability assay (CellTiter-Glo, 7 days), HCT116 MTAP-deleted). Settings: Homo sapiens, HCT-116; cell viability assay, HCT116 MTAP-deleted; class symbols; read-out: CC50.
Type: cell-based
How it was run: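 CC50 values come from 7-day CellTiter-Glo viability measurements on cells exposed to a dose range of PRMT5 inhibitors dispensed from DMSO stocks.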

SMILES | CC50 [nM]
Cc1nn(C)c(C)c1N(Cc1ccc(C(F)(F)F)cc1F)C(=O)c1cc2c(cc1F)nc(N)c1cncn12 [Ff-417, 4-amino-7-fluoro-N-[[2-fluoro-4-(trifluoromethyl)phenyl]methyl]-N-(1,3,5-trimethylpyrazol-4-yl)imidazo[1,5-a]quinoxaline-8-carboxamide] | < 100
C[C@H](C#N)N(Cc1ccc(C(F)(F)F)cc1F)C(=O)c1cc2c(cc1F)nc(N)c1cncn12 [Ff-418, 4-amino-N-[(1R)-1-cyanoethyl]-7-fluoro-N-[[2-fluoro-4-(trifluoromethyl)phenyl]methyl]imidazo[1,5-a]quinoxaline-8-carboxamide] | 100 to 1000
COC[C@@H](C)N(Cc1ccc(C(F)(F)F)cc1F)C(=O)c1cc2c(cc1F)nc(N)c1cncn12 [Ff-419, 4-amino-7-fluoro-N-[[2-fluoro-4-(trifluoromethyl)phenyl]methyl]-N-[(1R)-2-methoxy-1-methyl-ethyl]imidazo[1,5-a]quinoxaline-8-carboxamide] | < 100
C[C@H](C(N)=O)N(Cc1ccc(C(F)(F)F)cc1F)C(=O)c1cc2c(cc1F)nc(N)c1cncn12 [Ff-420, 4-amino-N-[(1R)-2-amino-1-methyl-2-oxo-ethyl]-7-fluoro-N-[[2-fluoro-4-(trifluoromethyl)phenyl]methyl]imidazo[1,5-a]quinoxaline-8-carboxamide] | 100 to 1000
Cn1cc(N(Cc2ccc(C(F)(F)F)cc2F)C(=O)c2cc3c(cc2F)nc(N)c2cncn23)c(Cl)n1 [Ff-421, 4-amino-N-(3-chloro-1-methyl-pyrazol-4-yl)-7-fluoro-N-[[2-fluoro-4-(trifluoromethyl)phenyl]methyl]imidazo[1,5-a]quinoxaline-8-carboxamide] | < 100
COc1nn(C)cc1N(Cc1ccc(C(F)(F)F)cc1F)C(=O)c1cc2c(cc1F)nc(N)c1cncn12 [Ff-422, 4-amino-7-fluoro-N-[[2-fluoro-4-(trifluoromethyl)phenyl]methyl]-N-(3-methoxy-1-methyl-pyrazol-4-yl)imidazo[1,5-a]quinoxaline-8-carboxamide] | < 100
Nc1nc2cc(F)c(C(=O)N(Cc3ccc(C(F)(F)F)cn3)c3cnn4ccccc34)cc2n2cncc12 [Ff-423, 4-amino-7-fluoro-N-pyrazolo[1,5-a]pyridin-3-yl-N-[[5-(trifluoromethyl)-2-pyridyl]methyl]imidazo[1,5-a]quinoxaline-8-carboxamide] | < 100
Nc1nc2cc(F)c(C(=O)N(Cc3ccc(C(F)(F)F)cc3F)c3cnn4ccccc34)cc2n2cncc12 [Ff-424, 4-amino-7-fluoro-N-[[2-fluoro-4-(trifluoromethyl)phenyl]methyl]-N-pyrazolo[1,5-a]pyridin-3-yl-imidazo[1,5-a]quinoxaline-8-carboxamide] | < 100
CN(C(=O)c1cc2c(cc1F)nc(N)c1cncn12)C1CCCc2cc(Cl)ccc21 (centres unmarked) [Ff-425, 4-amino-N-(6-chloro-1,2,3,4-tetrahydronaphthalen-1-yl)-7-fluoro-N-methylimidazo[1,5-a]quinoxaline-8-carboxamide] | 100 to 1000
CN(C(=O)c1cc2c(cc1F)nc(N)c1cncn12)C1CCc2sccc21 (centres unmarked) [Ff-426, 4-amino-N-(5,6-dihydro-4H-cyclopenta[b]thiophen-4-yl)-7-fluoro-N-methyl-imidazo[1,5-a]quinoxaline-8-carboxamide] | 100 to 1000
CN(Cc1ccc([C@@H]2C[C@H]2c2ccn(C(F)F)n2)cn1)C(=O)c1cc2c(cc1F)nc(N)c1cncn12 [Ff-428, 4-amino-N-[[5-[(1R,2R)-2-[1-(difluoromethyl)pyrazol-3-yl]cyclopropyl]-2-pyridyl]methyl]-7-fluoro-N-methyl-imidazo[1,5-a]quinoxaline-8-carboxamide] | 100 to 1000
CN(Cc1ccc([C@@H]2C[C@H]2c2ccn(C(F)F)n2)cc1F)C(=O)c1cc2c(cc1F)nc(N)c1cncn12 [Ff-429, 4-amino-N-[[4-[(1R,2R)-2-[1-(difluoromethyl)pyrazol-3-yl]cyclopropyl]-2-fluoro-phenyl]methyl]-7-fluoro-N-methyl-imidazo[1,5-a]quinoxaline-8-carboxamide] | < 100
CN(C(=O)c1cc2c(cc1F)nc(N)c1cncn12)C1CCCc2cc(C(F)(F)F)ccc21 (centres unmarked) [Ff-430, 4-amino-7-fluoro-N-methyl-N-[6-(trifluoromethyl)tetralin-1-yl]imidazo[1,5-a]quinoxaline-8-carboxamide] | 100 to 1000
COC[C@H](c1ccc(C(F)(F)F)cc1)N(C)C(=O)c1cc2c(cc1F)nc(N)c1cncn12 [Ff-431, 4-amino-7-fluoro-N-[(1S)-2-methoxy-1-[4-(trifluoromethyl)phenyl]ethyl]-N-methyl-imidazo[1,5-a]quinoxaline-8-carboxamide] | 100 to 1000
Nc1nc2cc(F)c(C(=O)N3CCCCC4Oc5cc(C(F)(F)F)ccc5C43)cc2n2cncc12 (centres unmarked) [Ff-432, (4-amino-7-fluoro-imidazo[1,5-a]quinoxalin-8-yl)-[8-(trifluoromethyl)-2,3,4,5,5a,10b-hexahydrobenzofuro[3,2-b]azepin-1-yl]methanone] | < 100
CN(Cc1ccc(OCC(F)(F)F)cc1)C(=O)c1cc2c(cc1F)nc(N)c1cncn12 [Ff-433, 4-amino-7-fluoro-N-methyl-N-[[4-(2,2,2-trifluoroethoxy)phenyl]methyl]imidazo[1,5-a]quinoxaline-8-carboxamide] | 100 to 1000
CN(C(=O)c1cc2c(cc1F)nc(N)c1cncn12)[C@@H]1CCc2cc([C@@H]3C[C@H]3C#N)ccc21 [Ff-434, Trans-4-amino-N-[(1R)-5-(2-cyanocyclopropyl)indan-1-yl]-7-fluoro-N-methyl-imidazo[1,5-a]quinoxaline-8-carboxamide] | < 100
Cc1ncn2c1c(N)nc1cnc(C(=O)N(C)C3CCc4cc(C(F)(F)F)ccc43)cc12 (centres unmarked) [Ff-435, 7-amino-N,5-dimethyl-N-[5-(trifluoromethyl)indan-1-yl]-2,4,8,11-tetrazatricyclo[7.4.0.02,6]trideca-1(13),3,5,7,9,11-hexaene-12-carboxamide] | 100 to 1000
CN(C(=O)c1cc2c(cn1)nc(N)c1cncn12)C1CCc2cc(C(F)(F)F)ccc21 (centres unmarked) [Ff-436, 7-amino-N-methyl-N-[5-(trifluoromethyl)indan-1-yl]-2,4,8,11-tetrazatricyclo[7.4.0.02,6]trideca-1(13),3,5,7,9,11-hexaene-12-carboxamide] | < 100
CN(C(=O)c1cc2c(cc1F)nc(N)c1cncn12)[C@@H]1COc2cc(C#CC3(C(F)F)CCOCC3)ccc21 [Ff-437, (S)-4-amino-N-(6-((4-(difluoromethyl)tetrahydro-2H-pyran-4-yl)ethynyl)-2,3-dihydrobenzofuran-3-yl)-7-fluoro-N-methylimidazo[1,5-a]quinoxaline-8-carboxamide] | < 100
CN(C(=O)c1cc2c(cc1F)nc(N)c1cncn12)[C@@H]1COc2cc([C@@H]3C[C@H]3C#N)c(F)cc21 [Ff-438, Trans-4-amino-N-[(3S)-6-(2-cyanocyclopropyl)-5-fluoro-2,3-dihydrobenzofuran-3-yl]-7-fluoro-N-methyl-imidazo[1,5-a]quinoxaline-8-carboxamide] | < 100
CN(C(=O)c1cc2c(cc1F)nc(N)c1cncn12)[C@@H]1COc2cc(C#CC(C)(C)C#N)ccc21 [Ff-439, 4-amino-N-[(3S)-6-(3-cyano-3-methyl-but-1-ynyl)-2,3-dihydrobenzofuran-3-yl]-7-fluoro-N-methyl-imidazo[1,5-a]quinoxaline-8-carboxamide] | < 100
CN(C(=O)c1cc2c(cc1F)nc(N)c1cncn12)[C@@H]1COc2cc(C#CC3(F)COC3)ccc21 [Ff-440, 4-amino-7-fluoro-N-[(3S)-6-[2-(3-fluorooxetan-3-yl)ethynyl]-2,3-dihydrobenzofuran-3-yl]-N-methyl-imidazo[1,5-a]quinoxaline-8-carboxamide] | < 100
CN(C(=O)c1cc2c(cc1F)nc(N)c1cncn12)[C@@H]1COc2cc(C#CC3(CC#N)CC3)ccc21 [Ff-441, 4-amino-N-[(3S)-6-[2-[1-(cyanomethyl)cyclopropyl]ethynyl]-2,3-dihydrobenzofuran-3-yl]-7-fluoro-N-methyl-imidazo[1,5-a]quinoxaline-8-carboxamide] | < 100
CN(C(=O)c1cc2c(cc1F)nc(N)c1cncn12)[C@@H]1COc2cc(C#CC(C)(C)O)ccc21 [Ff-442, 4-amino-7-fluoro-N-[(3S)-6-(3-hydroxy-3-methyl-but-1-ynyl)-2,3-dihydrobenzofuran-3-yl]-N-methyl-imidazo[1,5-a]quinoxaline-8-carboxamide] | < 100
CN(C(=O)c1cc2c(cc1Cl)nc(N)c1cncn12)[C@@H]1COc2cc([C@@H]3C[C@H]3C#N)c(F)cc21 [Ff-443, Trans-4-amino-7-chloro-N-[(3S)-6-(2-cyanocyclopropyl)-5-fluoro-2,3-dihydrobenzofuran-3-yl]-N-methyl-imidazo[1,5-a]quinoxaline-8-carboxamide] | < 100
CN(C(=O)c1cc2c(cc1F)nc(N)c1cncn12)[C@@H]1COc2cc(C34CC(C3)C4)ccc21 [Ff-444, 4-amino-N-[(3S)-6-(1-bicyclo[1.1.1]pentanyl)-2,3-dihydrobenzofuran-3-yl]-7-fluoro-N-methyl-imidazo[1,5-a]quinoxaline-8-carboxamide] | < 100
CN(C(=O)c1cc2c(cc1F)nc(N)c1cncn12)[C@@H]1COc2cc(C#CC3(C#N)CC3)ccc21 [Ff-445, 4-amino-N-[(3S)-6-[2-(1-cyanocyclopropyl)ethynyl]-2,3-dihydrobenzofuran-3-yl]-7-fluoro-N-methyl-imidazo[1,5-a]quinoxaline-8-carboxamide] | < 100
CN(C(=O)c1cc2c(cc1F)nc(N)c1cncn12)[C@@H]1COc2cc(C#CC3(F)CCOC3)ccc21 (stereo partly drawn) [Ff-446, 4-amino-7-fluoro-N-[(3S)-6-[2-(3-fluorotetrahydrofuran-3-yl)ethynyl]-2,3-dihydrobenzofuran-3-yl]-N-methyl-imidazo[1,5-a]quinoxaline-8-carboxamide] | < 100
